Reference: ChEMBL document CHEMBL1126932, “Mechanism-based inhibitors of prostaglandin omega-hydroxylase: (R)- and (S)-12-hydroxy-16-heptadecynoic acid and 2,2-dimethyl-12-hydroxy-16-heptadecynoic acid” (J Med Chem, 1993)

Each compound was assayed against T1, Cytochrome P450 4A4 (Oryctolagus cuniculus, UniProt P10611) (assay: Inactivation of prostaglandin E1 omega-hydroxylase (Cytochrome P450 4A4) in rabbit lung).
T1 sequence (P10611 whole entry): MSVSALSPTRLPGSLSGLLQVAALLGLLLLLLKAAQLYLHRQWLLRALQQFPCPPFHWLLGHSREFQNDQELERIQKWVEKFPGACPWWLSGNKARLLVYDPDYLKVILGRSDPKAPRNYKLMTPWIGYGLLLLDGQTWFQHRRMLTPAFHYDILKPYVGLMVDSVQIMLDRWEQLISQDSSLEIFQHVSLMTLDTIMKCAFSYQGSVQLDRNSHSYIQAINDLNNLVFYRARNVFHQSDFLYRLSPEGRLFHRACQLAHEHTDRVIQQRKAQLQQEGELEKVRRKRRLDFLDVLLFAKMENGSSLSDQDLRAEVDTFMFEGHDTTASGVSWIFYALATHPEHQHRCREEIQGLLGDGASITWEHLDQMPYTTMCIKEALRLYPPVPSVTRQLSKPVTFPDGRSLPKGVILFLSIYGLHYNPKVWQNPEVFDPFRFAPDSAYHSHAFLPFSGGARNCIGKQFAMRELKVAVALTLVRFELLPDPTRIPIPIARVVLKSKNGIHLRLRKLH
Type: tissue-based

| Ki [µM] | Structure (SMILES) |
| --- | --- |
| 1.8 | C#CCCC[C@@H](O)CCCCCCCCCCC(=O)O |
| 3.6 | C#CCCC[C@H](O)CCCCCCCCCCC(=O)O |
| 4.9 | C#CCCCC(O)CCCCCCCCCC(C)(C)C(=O)O (centres undefined) |
| 4.8 | C#CCCCC(O)CCCCCCCCCCC(=O)O (racemic) |
